The term melting point denotes the temperature, or range, at which the solid turns liquid.

Data set [1] can be described thus: Evaluation of phase transition temperature by polarizing microscope. In kind it is physicochemical. The note with it: for Phase Transition Temperature Evaluation of Decrease: versus comparative compound with the same Ar and side chain portion of Formula (Ia). The text has this: Here, the temperature at which the compound transitions from the smectic phase to the nematic phase may be easily measured by observation of the composition employing polarized light microscopy. For example, in the nematic phase, a schlieren texture specific to the nematic phase is observed, while the texture transitions to a focal conic fan texture in a smectic A phase. Therefore, the phase transition temperature can be measured by observing the textures with a polarizing microscope while increasing or decreasing the temperature.
The phase transition temperatures of the synthesized liquid crystal compounds of the Examples and Comparative Examples were observed using a polarizing microscope to evaluate the degrees of temperature decrease. Specifically, the compounds of the Examples were compared to the compounds of the Comparative Examples, which have different structures for the side chain portions thereof. That is, the phase transition temperature of a compound of a Comparative Example having Ar (the aromatic ring at the center of General Formula 1) in common with the Examples and a side chain portion represented by Formula (Ia) below was used as a reference. Evaluations of A through C were assigned according to the degree of temperature decrease from the reference phase transition temperature.
(§1) For example, compound (I-1) and (I-2) were compared to Comparative Compound (Ia-1), and Compound (III-3) was compared to Comparative Compound (IIIa-3). The evaluation was carried out based on the following criteria.
A: decrease in melting point or Sm-N (smectic-nematic) transition temperature is 20° C. or greater
B: decrease in melting point or Sm-N (smectic-nematic) transition temperature is 5° C. or greater and less than 20° C.
C: decrease in melting point or Sm-N (smectic-nematic) transition temperature is less than 5° C.
With respect to the phase transition temperature, the numerical value in parentheses represents the numerical value during temperature decrease, and other numerical values represent a numerical value during temperature increase.

A short description of data set [2]: Measurement and evaluation of solubility in MEK and CPN. The data set is classed as physicochemical. The following applies: for Solubility CPN wt %: cyclopentanone; for Solubility CPN wt % / Solubility MEK wt %: room temperature, visual observation, 5 wt % increments; for Solubility MEK wt %: methyl ethyl ketone; for Solubility Evaluation: versus comparative compound with the same Ar and side chain portion of Formula (Ia). Here is the method:
Solubility measurements of the synthesized liquid crystal compounds were conducted by the following method. 50 mg of each compound was weighted into a 1.5 mL sample bottle, and solvent was added until the solid component became 40 wt % (75 mg). The solubility was determined to be 40 wt % if clear under visual observation after shaking well manually at room temperature. If undissolved residue was present, solvent was added such that the solid component became 35 wt % (+18 mg). The solubility was determined to be 35 wt % if clear under visual observation after shaking well manually at room temperature. If undissolved residue was present, solvent was added such that the solid component became 30 wt %. Similar operations were performed in increments of 5 wt %, and repeated until the solid component became 5 wt %. If undissolved residue was present, the solubility was determined to be less than 5 wt % (<5 wt %), and measurements were completed. MEK (methyl ethyl ketone) and CPN (cyclopentanone) were utilized as solvents for measuring solubility.
The measured values of solubility were evaluated. The evaluations were conducted by using solubility of a compound of a Comparative Example having Ar (the aromatic ring at the center of General Formula 1) in common with the Examples and a side chain portion represented by Formula (Ia) as a reference, in a manner similar to that in the evaluation of the phase transition temperature. Evaluations of A through C were assigned according to the degree of improvement in solubility from the reference solubility.
as §1
A: solubility improved twofold or greater in plural solvents or a single solvent
B: solubility was the same or improved up to twofold in plural solvents or a single solvent
C: no improvement in solubility in plural solvents or a single solvent

[3] abbreviates: value in parentheses: during temperature decrease.

For the compound `C=CC(=O)OCCOC(=O)CCC(=O)OCCc1ccc(OC(=O)[C@H]2CC[C@H](C(=O)Oc3ccc(OC(=O)[C@H]4CC[C@H](C(=O)Oc5ccc(CCOC(=O)CCC(=O)OCCOC(=O)C=C)cc5)CC4)c4c3SC(=C(C#N)C#N)S4)CC2)cc1` [Compound I-1], the melting point was found to be 108 °C. In addition, in data set [1] (during temperature increase), the “TNi(° C.) Isotropic Phase Transition Point” value is 172 °C and the “Tsm—N(° C.) Sm—N Transition Point” value was determined as 140 °C. For the same compound, the “Phase Transition Temperature Evaluation of Decrease” value in data set [1] is “A (decrease in melting point or Sm-N (smectic-nematic) transition temperature is 20 °C or greater)”. Also, in data set [2], the “Solubility CPN wt %” value is 40 wt %, the “Solubility MEK wt %” value was determined as 20 wt % and the “Solubility Evaluation” value is listed as “A (solubility improved twofold or greater in plural solvents or a single solvent)”.
In turn, `C=C(C)C(=O)OCCOC(=O)CCC(=O)OCCc1ccc(OC(=O)[C@H]2CC[C@H](C(=O)Oc3ccc(OC(=O)[C@H]4CC[C@H](C(=O)Oc5ccc(CCOC(=O)CCC(=O)OCCOC(=O)C(=C)C)cc5)CC4)c4c3SC(=C(C#N)C#N)S4)CC2)cc1` [Compound I-2] gave a melting point of 105 °C. In data set [1] (during temperature increase), the “TNi(° C.) Isotropic Phase Transition Point” value came to 168 °C and the “Tsm—N(° C.) Sm—N Transition Point” value is 130 °C. Further, the “Phase Transition Temperature Evaluation of Decrease” value in data set [1] is “A (decrease in melting point or Sm-N (smectic-nematic) transition temperature is 20 °C or greater)”. Besides, in data set [2], the “Solubility CPN wt %” value is on record as 20 wt %, the “Solubility MEK wt %” value worked out at 10 wt % and the “Solubility Evaluation” value is “A (solubility improved twofold or greater in plural solvents or a single solvent)”.
In the case of `C=CC(=O)OCCCCOC(=O)CCC(=O)OCCc1ccc(OC(=O)[C@H]2CC[C@H](C(=O)Oc3ccc(OC(=O)[C@H]4CC[C@H](C(=O)Oc5ccc(CCOC(=O)CCC(=O)OCCCCOC(=O)C=C)cc5)CC4)c4c3SC(=C(C#N)C#N)S4)CC2)cc1` [Compound I-3], the melting point came out at 107 °C. Also, in data set [1] (during temperature increase), the “TNi(° C.) Isotropic Phase Transition Point” value turned out to be 156 °C and the “Tsm—N(° C.) Sm—N Transition Point” value was determined as 126 °C. Further, the “Phase Transition Temperature Evaluation of Decrease” value in data set [1] was “A (decrease in melting point or Sm-N (smectic-nematic) transition temperature is 20 °C or greater)”. Further, in data set [2], the “Solubility CPN wt %” value is 25 wt %, the “Solubility MEK wt %” value stood at 15 wt % and the “Solubility Evaluation” value is “A (solubility improved twofold or greater in plural solvents or a single solvent)”.
In the case of `C=CC(=O)OCCOCCOC(=O)CCC(=O)OCCc1ccc(OC(=O)[C@H]2CC[C@H](C(=O)Oc3ccc(OC(=O)[C@H]4CC[C@H](C(=O)Oc5ccc(CCOC(=O)CCC(=O)OCCOCCOC(=O)C=C)cc5)CC4)c4c3SC(=C(C#N)C#N)S4)CC2)cc1` [Compound I-5], the melting point is 110 °C. For the same compound, in data set [1] (during temperature increase), the “TNi(° C.) Isotropic Phase Transition Point” value was found to be 172 °C and the “Tsm—N(° C.) Sm—N Transition Point” value worked out at 146 °C. Also, in data set [1], the “Phase Transition Temperature Evaluation of Decrease” value was “A (decrease in melting point or Sm-N (smectic-nematic) transition temperature is 20 °C or greater)”. Also, in data set [2], the “Solubility CPN wt %” value is 40 wt %, the “Solubility MEK wt %” value stood at 15 wt % and the “Solubility Evaluation” value is given as “A (solubility improved twofold or greater in plural solvents or a single solvent)”.
On to `C=CC(=O)OCCOC(=O)COCC(=O)OCCc1ccc(OC(=O)[C@H]2CC[C@H](C(=O)Oc3ccc(OC(=O)[C@H]4CC[C@H](C(=O)Oc5ccc(CCOC(=O)COCC(=O)OCCOC(=O)C=C)cc5)CC4)c4c3SC(=C(C#N)C#N)S4)CC2)cc1` [Compound I-6], for which the melting point came out at 110 °C. Moreover, in data set [1] (during temperature increase), the “TNi(° C.) Isotropic Phase Transition Point” value was 172 °C and the “Tsm—N(° C.) Sm—N Transition Point” value was determined as 146 °C. In addition, the “Phase Transition Temperature Evaluation of Decrease” value in data set [1] is “A (decrease in melting point or Sm-N (smectic-nematic) transition temperature is 20 °C or greater)”. For the same compound, in data set [2], the “Solubility CPN wt %” value is reported as 20 wt %, the “Solubility MEK wt %” value is 10 wt % and the “Solubility Evaluation” value is “A (solubility improved twofold or greater in plural solvents or a single solvent)”.
Compound `C=C(C)C(=O)OCCOCCNC(=O)OCCc1ccc(OC(=O)[C@H]2CC[C@H](C(=O)Oc3ccc(OC(=O)[C@H]4CC[C@H](C(=O)Oc5ccc(CCOC(=O)NCCOCCOC(=O)C(=C)C)cc5)CC4)c4c3SC(=C(C#N)C#N)S4)CC2)cc1` [Compound I-7] registered a melting point of 130 °C. Further, in data set [1] (during temperature increase), the “TNi(° C.) Isotropic Phase Transition Point” value worked out at 195 °C and the “Tsm—N(° C.) Sm—N Transition Point” value stood at 145 °C. In addition, the “Phase Transition Temperature Evaluation of Decrease” value in data set [1] was “B (decrease in melting point or Sm-N (smectic-nematic) transition temperature is 5 °C or greater and less than 20° C.)”. For the same compound, in data set [2], the “Solubility CPN wt %” value came to 25 wt %, the “Solubility MEK wt %” value is listed as 10 wt % and the “Solubility Evaluation” value is “A (solubility improved twofold or greater in plural solvents or a single solvent)”.
As for `C=CC(=O)OCCOC(=O)CCC(=O)OCCc1ccc(OC(=O)[C@H]2CC[C@H](C(=O)Oc3ccc(OC(=O)[C@H]4CC[C@H](C(=O)Oc5ccc(CCOC(=O)CCC(=O)OCCOC(=O)C=C)cc5)CC4)c4c3SC(=C(C#N)C(=O)OCCC(C)(C)O)S4)CC2)cc1` [III-7], in data set [1] (setting [3]), the “TNi(° C.) Isotropic Phase Transition Point” value is “(50) ° C”. Further, the “Phase Transition Temperature Evaluation of Decrease” value in data set [1] was “A (decrease in melting point or Sm-N (smectic-nematic) transition temperature is 20 °C or greater)”. Moreover, in data set [2], the “Solubility CPN wt %” value was 40 wt %, the “Solubility MEK wt %” value was 40 wt % and the “Solubility Evaluation” value is listed as “A (solubility improved twofold or greater in plural solvents or a single solvent)”.
As for `C=CC(=O)OCCOC(=O)CCC(=O)OCCc1ccc(OC(=O)[C@H]2CC[C@H](C(=O)Oc3cc(CC)c(OC(=O)[C@H]4CC[C@H](C(=O)Oc5ccc(CCOC(=O)CCC(=O)OCCOC(=O)C=C)cc5)CC4)c4c3SC(=C(C#N)C#N)S4)CC2)cc1` [IV-2], in data set [1] (setting [3]), the “TNi(° C.) Isotropic Phase Transition Point” value was “(113) ° C” and the “Tsm—N(° C.) Sm—N Transition Point” value was “(61) ° C”. In addition, in data set [2], the “Solubility CPN wt %” value came out at 40 wt % and the “Solubility MEK wt %” value amounted to 40 wt %.
As for `C=CC(=O)OCCOC(=O)CCC(=O)OCCc1ccc(OC(=O)[C@H]2CC[C@H](C(=O)Oc3cc(C(C)(C)C)c(OC(=O)[C@H]4CC[C@H](C(=O)Oc5ccc(CCOC(=O)CCC(=O)OCCOC(=O)C=C)cc5)CC4)c4c3SC(=C(C#N)C#N)S4)CC2)cc1` [IV-6], the “TNi(° C.) Isotropic Phase Transition Point” value in data set [1] (setting [3]) was “(58) ° C”. Moreover, in data set [1], the “Phase Transition Temperature Evaluation of Decrease” value was “A (decrease in melting point or Sm-N (smectic-nematic) transition temperature is 20 °C or greater)”. Moreover, in data set [2], the “Solubility CPN wt %” value was 40 wt %, the “Solubility MEK wt %” value came out at 40 wt % and the “Solubility Evaluation” value was “A (solubility improved twofold or greater in plural solvents or a single solvent)”.
As for `C=CC(=O)OCCCCCCOc1ccc(OC(=O)[C@H]2CC[C@H](C(=O)Oc3cc(C(C)(C)C)c(OC(=O)[C@H]4CC[C@H](C(=O)Oc5ccc(OCCCCCCOC(=O)C=C)cc5)CC4)c4c3SC(=C(C#N)C#N)S4)CC2)cc1` [IVa-6, reference compound], in data set [1] (setting [3]), the “TNi(° C.) Isotropic Phase Transition Point” value is “(167) ° C”. Further, in data set [2], the “Solubility CPN wt %” value came out at 10 wt % and the “Solubility MEK wt %” value was <5 wt %.

The values above are taken from patent US11072741B2, “Optically anisotropic layer, method for producing the optically anisotropic layer, a laminate, polarizing plate, display device, liquid crystal compound, method for producing the liquid crystal compound, and carboxylic acid compound” (FUJIFILM Corporation, priority 2014, dated 2021).
